The text below walks through data of PMC9228987, “Antiproliferative Activity of a New Quinazolin-4(3H)-One Derivative via Targeting Aurora Kinase A in Non-Small Cell Lung Cancer” (Pharmaceuticals, 2022).

As usually defined, the IC50 is the concentration that inhibits the measured activity by half.

Assay [1] relates to HCC827 cells. The experiment in a line: SRB cell proliferation assay. To be noted: Homo sapiens, HCC827, 72 h, read-out: IC50 value, HCC827.
Procedure: (§3) The human non-small lung cancer cell lines A549, NCI-H1975, NCI-H1299, and NCI-H1993 were purchased from the American Type Culture Collection (Manassas, VA, USA). The human non-small cell lung cancer cell lines HCC827, PC9, HCC827-gef and PC9-gef were a kind gift from Dr. Jae Cheol Lee and Dr. Jin Kyung Rho (Asan Medical Center, Seoul, Korea). […] Cells were incubated at 37 °C in a humidified atmosphere with 5% CO2.
(§4) Cell viability was measured using the SRB method as described previously [58]. Briefly, cells were seeded with different concentrations of compounds and incubated for 72 h. After 72 h incubation, cells were fixed with 10% TCA for 30 min at 4 °C and stained with 0.4% (w/v) SRB in 1% acetic acid for 2 h at room temperature.
For assay [2], the system named is PC9 cells. Put plainly: SRB cell proliferation assay. To be noted: Homo sapiens, PC-9, 72 h, read-out: IC50 value, PC9.
Procedure: as §3, §4
The test system of assay [3] is HCC827-gef cells. Put plainly: SRB cell proliferation assay. Conditions: Homo sapiens, 72 h, read-out: IC50 value, HCC827-gef.
Procedure: as §3, §4
Assay [4] has as its system PC9-gef cells. Put plainly: SRB cell proliferation assay. To be noted: Homo sapiens, 72 h, read-out: IC50 value, PC9-gef.
Procedure: as §3, §4
Assay [5] deals with H1975 cells. The experiment in a line: SRB cell proliferation assay. Conditions: Homo sapiens, NCI-H1975, 72 h, read-out: IC50 value, H1975.
Procedure: as §3, §4
For assay [6], the system named is H1299 cells. Put plainly: SRB cell proliferation assay. To be noted: Homo sapiens, NCI-H1299, 72 h, read-out: IC50 value, H1299.
Procedure: as §3, §4
In assay [7] the test system is H1993 cells. Put plainly: SRB cell proliferation assay. Conditions: Homo sapiens, NCI-H1993, 72 h, read-out: IC50 value, H1993.
Procedure: as §3, §4
Assay [8] concerns A549 cells. The experiment in a line: SRB cell proliferation assay. Conditions: Homo sapiens, A549, 72 h, read-out: IC50 value, A549.
Procedure: as §3, §4
Assay [9] relates to H1975 cells. The experiment in a line: Colony formation assay. It is filed as cell-based, human. To be noted: treated 48 h, additional ten days without compound. As to the method:
Cells (500 cells/well) were seeded and cultured overnight. The compounds were treated for 48 h, the cells were washed with phosphate buffered saline (PBS), and continued incubation. Culture medium was replaced every three days for ten days. Cells were fixed with 4% paraformaldehyde solution and stained with 0.1% crystal violet.

The target in assay [10] is T1, Recombinant human aurora A protein (Homo sapiens, UniProt O14965).
T1 construct: purchased Abcam ab271368
T1 sequence (O14965 1-403): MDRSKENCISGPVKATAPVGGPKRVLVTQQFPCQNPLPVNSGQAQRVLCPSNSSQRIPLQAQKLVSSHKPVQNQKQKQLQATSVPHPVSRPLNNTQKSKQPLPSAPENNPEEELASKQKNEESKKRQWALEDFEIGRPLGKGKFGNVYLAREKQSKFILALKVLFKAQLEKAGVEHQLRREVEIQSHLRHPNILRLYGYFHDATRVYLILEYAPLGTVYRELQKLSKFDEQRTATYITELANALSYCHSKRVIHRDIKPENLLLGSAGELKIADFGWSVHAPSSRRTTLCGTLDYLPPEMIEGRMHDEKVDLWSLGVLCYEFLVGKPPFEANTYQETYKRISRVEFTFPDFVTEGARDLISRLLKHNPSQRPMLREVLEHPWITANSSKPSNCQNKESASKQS
Put plainly: Cell-free aurora kinase assay (ADP-Glo). The assay is classed as biochemical. Conditions: myelin basic protein substrate, read-out: Aurora Kinase A Inhibition (IC50). On the procedure: (§1) Aurora A kinase activity was measured using an ADP-Glo™ Kinase assay kit (Promega, USA, Catalog No. # PAV9101). Recombinant human aurora A protein (Active) (ab271368) and Recombinant human aurora B protein (Active) (ab51435) were purchased from Abcam (United States, Boston, MA). […] The ADP-Glo ^TM reagents and kinase detection buffer and substrates were prepared according to the ADP-Glo™ Kinase Assay kit instructions. Luminescence was measured using a microplate reader.
On the technique in general: In ADP-Glo the light output rises with the ADP produced.

The target of assay [11] is T2, Recombinant human aurora B protein (Homo sapiens, UniProt Q96GD4).
T2 construct: purchased Abcam ab51435
Put plainly: Cell-free aurora kinase assay (ADP-Glo). The assay is classed as biochemical. To be noted: myelin basic protein substrate, read-out: Aurora Kinase B Inhibition (IC50). On the procedure:
as §1

Assay [12] relates to p-aurora kinase A (T288). The experiment in a line: Western blotting of phospho-aurora kinase A in H1975 cells. Conditions: 24 h. It is filed as cell-based, human. The source says: (§2) The cells were collected and lysed in sample loading buffer (Bio-Rad, Hercules, CA, USA). Total protein concentrations were quantified using a BCA Protein Assay Kit (Thermo Fisher Scientific, Waltham, MA, USA). Quantified proteins were loaded onto SDS-polyacrylamide gels and separated by molecular weight via electrophoresis (PAGE). Then, proteins were transferred to polyvinylidene fluoride membranes (Millipore, Bedford, MA, USA); 5% BSA in Tris-buffered saline containing 0.1% Tween-20 (TBST) was used for blocking. The membranes were blocked for 30 min at room temperature with mild shaking, then incubated with antibodies diluted in 2.5% BSA in TBST overnight at 4 °C with mild shaking. Following secondary antibody incubation and washing with TBST, the chemiluminescence signals were detected using the WEST-Queen detection system (iNtRON Biotechnology, Seongnam, Korea) and LAS-4000 (Fuji Film Corp., Tokyo, Japan).

Assay [13] concerns H1975 cells. Put plainly: Cell cycle analysis (PI staining, flow cytometry). The assay is classed as cell-based, human. To be noted: for Sub-G1 cell population: 72 h (Figure 5A). On the procedure:
Cells were seeded and starved in serum-free medium overnight. After starvation, the cells were treated with compounds for the indicated times. After incubation, cells were harvested, washed with PBS, and fixed with 70% ethanol in PBS overnight at −20 °C. The fixed cells were washed with PBS, resuspended in 100 µg/mL of RNase A for 30 min at room temperature, and stained with 50 µg/mL PI. Fluorescence intensity was analyzed using a FACSCalibur flow cytometer (BD Biosciences, San Jose, CA, USA) and BD CellQuest^TM Pro version 6.0 software (BD Biosciences, San Jose, CA, USA).
On the technique in general: Flow cytometry measures light scatter and fluorescence of single cells or particles in a stream.

Assay [14] concerns H1975 cells. Put plainly: Annexin V-FITC/PI double staining (flow cytometry). The assay is classed as cell-based, human. As to the method:
Cells were treated with samples for 72 h and stained with an Annexin V-FITC apoptosis detection kit (BD Biosciences, San Jose, CA, USA) according to the manufacturer’s instructions. Briefly, cells were collected after 72 h treatment, washed with PBS, resuspended in 1× binding buffer, and stained with Annexin V-FITC and PI in the dark for 15 min. After incubation, the cells were diluted with 1× binding buffer and analyzed using an FACSCalibur flow cytometer (BD Biosciences, San Jose, CA, USA) and BD CellQuest^TM Pro version 6.0 software (BD Biosciences, San Jose, CA, USA).

In assay [15] the test system is cdc25C, cdc2, and p21 proteins. The experiment in a line: Western blotting of cell cycle regulators in H1975 cells. Conditions: H1975, 24 h. It is filed as cell-based, human.
From the text: as §2
(In general: In western blotting, separated proteins are transferred to a membrane and probed.)

Assay [16] has as its system cleaved PARP, PARP, cleaved caspase-8, and caspase-8 proteins. Put plainly: Western blotting of apoptosis-related proteins in H1975 cells. To be noted: H1975, 72 h, concentration-dependent. The assay is classed as cell-based, human.
From the text: as §2

T2 sequence (Q96GD4 whole entry): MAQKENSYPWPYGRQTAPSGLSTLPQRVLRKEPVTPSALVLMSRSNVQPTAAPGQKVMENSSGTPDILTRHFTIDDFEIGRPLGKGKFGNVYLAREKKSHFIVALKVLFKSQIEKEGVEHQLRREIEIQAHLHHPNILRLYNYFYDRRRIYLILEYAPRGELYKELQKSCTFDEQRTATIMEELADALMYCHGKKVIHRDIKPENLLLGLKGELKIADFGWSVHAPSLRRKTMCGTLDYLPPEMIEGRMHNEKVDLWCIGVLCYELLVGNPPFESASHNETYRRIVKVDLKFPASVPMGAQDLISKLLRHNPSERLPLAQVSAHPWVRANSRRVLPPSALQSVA

Turning to `CCC(=O)Nc1nc2ccc(-c3ccc4ncn(CCc5cc6ccccc6[nH]5)c(=O)c4c3)cc2[nH]1` [FL-4, reference compound], the IC50 in [1] is 4.14 ± 0.64 µM; in [2], 15 ± 1.41 µM; in assay [3] it was 6.4 ± 0.6 µM; in assay [4], 6.75 ± 0.71 µM; in assay [5], 2.81 ± 0.43 µM; in [6] it was 5.54 ± 0.85 µM. For the same molecule, the 50% inhibitory concentration (IC50) worked out at 4.57 ± 0.29 µM in assay [7] and 6.11 ± 1.14 µM in assay [8].
As for `CCOC(=O)c1cn2cc(-c3ccc4ncn(Cc5ncccn5)c(=O)c4c3)ccc2n1` [BIQO-19, ethyl 6-(4-oxo-3-(pyrimidin-2-ylmethyl)-3,4-dihydroquinazolin-6-yl)imidazo [1,2-a]pyridine-2-carboxylate], the “colony formation in H1975 cells” value in assay [9] was “significant inhibition of colony formation”. For the same molecule, the IC50 is 0.0685 ± 0.00645 µM in [10]; 0.581 ± 0.0138 µM in assay [11]; 4.84 ± 0.17 µM in assay [1]; 16.4 ± 1.44 µM in assay [2]; 4.43 ± 0.35 µM in assay [3]; 9.21 ± 0.51 µM in [4]. Moreover, the half-inhibitory concentration (IC50) in assay [5] is 4.76 ± 0.17 µM; in assay [6], 5.3 ± 0.06 µM; in assay [7] it was 5.5 ± 1.69 µM; in [8], 3.63 ± 0.28 µM. Besides, the “levels of p-aurora kinase A (T288) expression” value in [12] was “suppressed by BIQO-19 treatment in a concentration-dependent manner”. Moreover, the Sub-G1 cell population in assay [13] (H1975, 1 μM) turned out to be 2.54%; in [13] (H1975, 2 μM), 2.60%; in assay [13] (H1975, 4 μM) it was 15.5%. The G2/M cell population turned out to be 35.3% in assay [13] (H1975, 4 μM, 12 h (Figure 4A)) and 52.0% in [13] (H1975, 4 μM, 24 h (Figure 4A)). Besides, in [14] (H1975, 4 μM, 72 h (Figure 5B,C)), the “total cell deaths (early apoptosis + late apoptosis + necrosis)” value is recorded as 26.67%. In addition, the early apoptosis fraction in [14] (H1975, 72 h, single vs combination treatment (Figure 6C)) is recorded as 17.6%. The total cell death in assay [14] (H1975, 72 h, single vs combination treatment (Figure 6D)) came to 27.1%. In assay [15], the “cdc25C and cdc2 expression” value is recorded as “effectively downregulated”. In [15], the p21 expression result is on record as “upregulated”. In addition, the “expression levels of PARP and caspase-8 (inactivated forms)” value in assay [16] is reported as “downregulated”. Also, the “expression levels of cleaved PARP and cleaved caspase-8 (activated forms)” value in [16] is listed as “upregulated”.
